PMC5295395, “Inhibition of PlexA1-mediated brain tumor growth and tumor-associated angiogenesis using a transmembrane domain targeting peptide” (Oncotarget, 2016)

Columns and labels:
NRP1 TMD = test: surface plasmon resonance (SPR, Biacore) with NRP1 TMD; type: binding; conditions: Biacore 2000, 20°C, streptavidin CM5 chip, 10 mM HEPES pH 7.4, 150 mM NaCl, 0.005% P20, 3 mM LDAO, flow 5 μl/min
Method: A surface plasmon resonance (SPR, Biacore) analysis was also conducted with a synthetic biotinylated PlexA1 peptide immobilized on the chip. […] Due to the high hydrophobic nature and difficulty to produce TMD peptides we only performed this experiment with TMD peptides for which we had experience of successful synthesis. […]
assigned to the “highest Plxna1” group and conversely (Abcam, ab32960-100) was added to the sections in those with a Plxna1 expression below the median to the blocking solution at 4°C overnight at a dilution of 1/100.
“lowest Plxna1” group. […]
For the “TCGA dataset” [50, 51], data were The tissue was rinsed with PBS (3 × 5 minutes) and downloaded from the TCGA data portal (https://tcga- then the endogenous peroxidases were blocked with 1% data.nci.nih.gov/tcga/tcgaHome2.jsp; NCI, USA). RMA H2O2 solution (Sigma, #H1009) in methanol solution normalized gene expression profiles measured with during 20 minutes. […]
Factor (recombinant human) 0.1 ng/ml, Basic Fibroblast RNA was treated with DNase I (Invitrogen) and reverse Growth Factor (recombinant human) 1 ng/ml, Heparin 90 transcribed using the High Capacity cDNA RT Kit μg/ml, Hydrocortisone 1 μg / ml. […] Samples were analyzed using […]

NCH644 cells = test: MTS proliferation assay, NCH644 glioma stem cells; type: cell-based, human; conditions: NCH644, p < 0.0001

Sequence: TLPAIVGIGGGGGLLLLVIVAVLIAYKRK [MTP-PlexA1, synthetic transmembrane peptide mimicking the TMD of PlexA1]
- interaction of immobilized biotinylated PlexA1 TMD peptide with NRP1 (NRP1 TMD): significantly interacted with NRP1
- change of proliferation of glioma stem cells (NCH644 cells): −10%
